Measurements published in patent US20200129435A1, “COMPOSITION FOR DELIVERING A THERAPEUTIC AGENT AND METHODS FOR MAKING AND USING” (UVic Industry Partnerships Inc., priority 2018, published 2020).
Like-named read-outs stand apart in the source and are kept apart here.

Key:
[1] = test system: U87 glioblastoma cells; assay: PrestoBlue cell viability assay (Example 2); type: cell-based; details: Homo sapiens, 96-hours treatment, read-out: reduction of cell viability
Protocol: PrestoBlue™ cell viability assay was used to determine the effect of TMZ on the viability and proliferation of U87 glioblastoma cells. In this assay, metabolically active cells reduce a non-fluorescent compound (resazurin) in the PrestoBlue™ solution into a fluorescent molecule (resorufin).
In this study, U87 glioblastoma cells were seeded in a 96 well plate at 5,000 cells per well density, and a 24 well plate at 25,000 cells per well density to evaluate the cytotoxicity of free TMZ and one embodiment of the disclosed composition, respectively. The wells were then incubated for 24 hours at 37° C. with 95% relative humidity and 5% CO2. To determine the effect of the free TMZ, U87 glioblastoma cells were treated with different concentrations of the drug from 100 μM to 1000 μM in the cell medium. To study the effect of the disclosed hydrogel composition, the cells were treated with both microsphere-loaded (TMZ concentration of 100 μM) and blank meshes. Cells were incubated for 24, 48, 72, and 96 hours without changing the cell culture medium. […] Subsequently, the cell culture medium containing presto blue was transferred into a new well plate and the fluorescent intensity of each well was measured at excitation wavelength of 535 nm and emission wavelength of 615 nm by using a plate reader. Cell viability was then calculated by using equation 4 (Eq. 4): […]

[2] = test system: U-87 MG cells; assay: PrestoBlue cell viability assay (Example 1); type: cell-based, human
Protocol: Cell viability was assessed by PrestoBlue™ (Invitrogen/Life Technologies™, Carlsbad, USA, Catalog No.: A13262) assay. In this experiment, cells were first seeded in 6-well plates in a density of 6×10^4 cells/well. Viability tests were conducted at 48, 72, and 96 hours by replacing the cell media with 10% PrestoBlu™ reagent and incubating at 37° C. for 1 hour. Following, 100 μl of the incubated 10% PrestoBlue™ reagent from each well of the assay plates was transferred to a new well in a 96-well plate and read by a microplate reader (Infinite M200 Pro). Finally, viability was calculated by the following equation: […]

[3] = test system: U-87 MG cells; assay: Bright field microscopy of treated cells; type: cell-based, human; details: free ATRA = 40 μM
[4] = test system: U-87 MG cells; assay: Cell count assay (hemocytometer, Trypan Blue); type: cell-based, human; details: 40 μM ATRA in cell medium
Protocol: U-87 MG cells were provided by ATCC® and cultured in Dulbecco's Modified Eagle Medium (DMEM), high glucose (Gibco™ by Life Technologies™, Carlsbad, USA, Catalog No.: 11965084) with 10% fetal bovine serum (Gibco™ by Life Technologies™, Carlsbad, USA, Catalog No.: 12483020), 1% penicillin-streptomycin (Invitrogen/Life Technologies™, Carlsbad, USA, Catalog No.: 15140122), and 4 μg/ml puromycin at 37° C. in an atmosphere of 5% CO2. Cells were counted by hemocytometer (Bright-Line™) with two-time dilution in Trypan Blue solution (Sigma-Aldrich, St Louis, USA, Catalog No.:93595).

[5] = oral administration is the main route; cited from earlier work
[6] = test system: U-87 MG cells; assay: Apoptosis assay, propidium iodide flow cytometry, sub-G1 population; type: cell-based, human; details: free ATRA 40 μM; 48 hours
Protocol: To determine the level of apoptosis induced by ATRA apoptosis levels were detected using propidium iodide (PI) lysis buffer and flow cytometry. […] 1% sodium citrate (Bio Basic, Markham, Canada, Catalog No.: CB0035) and 0.1% Triton X-100 (Sigma-Aldrich, Sigma-Aldrich, St. Louis, USA Catalog No.: X100) were added to distilled water to prepare an initial solution for PI lysis buffer. The pH of the solution was adjusted to 7.4 and stored.
Prior to the apoptosis assay, RNase (Sigma-Aldrich, St. Louis, USA Catalog No.: R6513) and propidium iodide (Sigma-Aldrich, St. Louis, USA Catalog No.: P4864) was added to the initial solution to reach concentrations of 0.5 mg/ml and 40 μg/ml for RNase and propidium iodide, respectively. The cell media was collected and the cells were detached with EDTA (Caledon Laboratory Chemicals, Georgetown, Canada, Catalog No.: 3460-1-65) solution. The cell suspension was centrifuged at 4° C. in 1500 g for 5 minutes. Following, the cell pellets were washed twice with 500 μl of DPBS (Gibco™ by Life Technologies™, Carlsbad, USA, Catalog No.: 14190250) 4° C. The pellets were then lysed and stained with 250 μl of PI lysis buffer, and kept at room temperature in the dark for 15-30 minutes. […] Finally, the red channel was read on the flow cytometer to determine the sub-G1 population.

SMILES	cytotoxicity at 100 µM ([1]; free TMZ 100 μM) [%]	cytotoxicity at 1000 µM ([1]; free TMZ 1000 μM) [%]	cell viability compared to control ([2]; 20 μM in cell medium, 96 hours) [%]	cell viability compared to control ([2]; 40 μM in cell medium, 96 hours) [%]	viability at 20 µM ([2]; Homo sapiens, U-87 MG, 48 h, 20 μM in cell medium, 48 hours, read-out: cell viability compared to control) [%]	viability at 20 µM ([2]; Homo sapiens, U-87 MG, 96 h, 20 μM in cell medium, 96 hours, read-out: cell viability compared to control) [%]	viability at 40 µM ([2]; Homo sapiens, U-87 MG, 96 h, 40 μM in cell medium, 96 hours, read-out: cell viability compared to control) [%]	cell morphology [3]	cell population relative to control condition ([4]; 48 hours)	cell population relative to control condition ([4]; 96 hours)	half-life [5]	apoptosis (sub-G1 population) [6]
Cn1nnc2c(C(N)=O)ncn2c1=O [TMZ, Temozolomide]	78	95	–	–	–	–	–	–	–	–	–	–
CC1=C(/C=C/C(C)=C/C=C/C(C)=C/C(=O)O)C(C)(C)CCC1 [ATRA, all-trans retinoic acid]	–	–	77	72	88.4	77.3	72.4	cell shrinkage	86.0%±7.2%	64.4%±8.6%	about 1.5 hours	about 2%
